≈ marks a conversion by molar mass, not a printed value.
Assays:
Assay in all cases: ≥ marks a high value that may be exact or a test limit, other limits are often not marked, values filed in µg/mL are converted to µM
[1] = tested on: Staphylococcus aureus PCM 1944
[2] = tested on: Escherichia coli PCM 2057
[3] = tested on: Candida albicans ATCC 36232
[4] = tested on: Pseudomonas aeruginosa ATCC 9027
[5] = tested on: Shigella flexneri ATCC 203
[6] = tested on: Escherichia coli ATCC 2592
[7] = tested on: Staphylococcus aureus ATCC 6538
[8] = tested on: Bacillus subtilis ATCC 6633
[9] = tested on: Micrococcus luteus ATCC 9341
Staphylococcus aureus = tested on: Staphylococcus aureus
[10] = tested on: Corynebacterium diphtheriae ATCC 8024
[11] = tested on: Staphylococcus epidermidis ATCC 12228
Aerococcus viridans = tested on: Aerococcus viridans
[12] = tested on: Enterobacter cloacae beta-12
Micrococcus luteus A270 = tested on: Micrococcus luteus A270
[13] = tested on: Pseudomonas aeruginosa ATCC 82118
Klebsiella pneumoniae = tested on: Klebsiella pneumoniae
Bacillus thuringiensis = tested on: Bacillus thuringiensis
Listeria monocytogenes = tested on: Listeria monocytogenes
Bacillus megaterium = tested on: Bacillus megaterium
Bacillus subtilis QB935 = tested on: Bacillus subtilis QB935
Pediococcus acidilactici = tested on: Pediococcus acidilactici
[14] = tested on: Staphylococcus saprophyticus
Serratia marcescens Db11 = tested on: Serratia marcescens Db11
Alcaligenes faecalis = tested on: Alcaligenes faecalis
Escherichia coli D22 = tested on: Escherichia coli D22
Salmonella typhimurium = tested on: Salmonella typhimurium

## CC[C@H](C)[C@@H]1NC(=O)[C@H](CO)NC(=O)[C@H](CCCCN)NC(=O)[C@@H](NC(=O)[C@H](CCCN=C(N)N)NC(=O)[C@H](Cc2ccccc2)NC(=O)[C@H](Cc2cnc[nH]2)NC(=O)[C@@H](NC(=O)[C@H](CCCCN)NC(=O)[C@H](Cc2ccccc2)NC(=O)[C@@H]2CCCN2C(=O)[C@@H](NC(=O)[C@H](CC(N)=O)NC(=O)[C@H](C)NC(=O)[C@H](C)N)[C@@H](C)CC)C(C)C)CSSC[C@@H](C(=O)O)NC(=O)[C@H](Cc2ccccc2)NC1=O [AANIPFKVHFRCKSIFC]
[1]
  MIC: ≥ 505 µM
[2]
  MIC: ≥ 505 µM

## CC(C)[C@H](NC(=O)[C@H](CS)NC(=O)[C@@H](NC(=O)[C@H](CCCN=C(N)N)NC(=O)[C@H](CCCCN)NC(=O)CNC(=O)[C@@H](N)CC(N)=O)C(C)C)C(=O)N[C@@H](CS)C(=O)N[C@@H](CCCN=C(N)N)C(N)=O [NGKRVCVCR]
[3]
  MIC: ≥ 96.7 µM
[4]
  MIC: > 96.7 µM
[5]
  MIC: ≥ 96.7 µM
[6]
  MIC: ≥ 96.7 µM
[7]
  MIC: > 96.7 µM
[8]
  MIC: ≥ 96.7 µM
[9]
  MIC: ≥ 96.7 µM
Staphylococcus aureus
  MIC: > 96.7 µM
[10]
  MIC: ≥ 96.7 µM
[11]
  MIC: > 96.7 µM

## CC[C@H](C)[C@@H]1NC(=O)[C@H](CC(=O)O)NC(=O)[C@@H](NC(=O)[C@@H](NC(=O)[C@H](C)N)[C@@H](C)O)CSSC[C@@H]2NC(=O)[C@H](CCC(N)=O)NC(=O)CNC(=O)CNC(=O)[C@H](CCCCN)NC(=O)[C@H](Cc3ccc(O)cc3)NC(=O)CNC(=O)[C@H](CCCCN)NC(=O)[C@H]([C@@H](C)CC)NC(=O)[C@H](C(C)C)NC(=O)[C@@H]3CSSC[C@@H](C(=O)N[C@@H](CCCN=C(N)N)C(=O)N[C@@H](CCCN=C(N)N)C(=O)O)NC(=O)[C@H](Cc4cnc[nH]4)NC(=O)[C@H](CSSC[C@H](NC(=O)CNC(=O)[C@H](C)NC(=O)[C@H](Cc4cnc[nH]4)NC(=O)[C@H](CC(N)=O)NC(=O)[C@@H]4CCCN4C(=O)[C@H]([C@@H](C)O)NC(=O)[C@H](C(C)C)NC(=O)[C@H](Cc4c[nH]c5ccccc45)NC(=O)[C@H](CCC(N)=O)NC(=O)[C@H](CO)NC(=O)[C@H](CCC(N)=O)NC(=O)[C@H](Cc4ccccc4)NC(=O)[C@H](CO)NC(=O)[C@H](CC(C)C)NC1=O)C(=O)N[C@@H](C)C(=O)N[C@@H](CC(C)C)C(=O)N[C@@H](Cc1cnc[nH]1)C(=O)N3)NC(=O)[C@H](C(C)C)NC(=O)[C@H]([C@@H](C)O)NC(=O)[C@H]([C@@H](C)CC)NC(=O)[C@H](CCCCN)NC2=O [ATCDILSFQSQWVTPNHAGCALHCVIKGYKGGQCKITVCHCRR]
Aerococcus viridans
  MIC: 0.424 µM (≈ 2.01 µg/mL)
[12]
  MIC: 5 µM (≈ 23.6 µg/mL)
Micrococcus luteus A270
  MIC: 0.212 µM (≈ 1 µg/mL)
[13]
  MIC: 5 µM (≈ 23.6 µg/mL)
Klebsiella pneumoniae
  MIC: > 5 µM
Bacillus thuringiensis
  MIC: 5 µM (≈ 23.6 µg/mL)
Listeria monocytogenes
  MIC: 5 µM (≈ 23.6 µg/mL)
Bacillus megaterium
  MIC: 0.212 µM (≈ 1 µg/mL)
Bacillus subtilis QB935
  MIC: 3.54 µM (≈ 16.7 µg/mL)
Pediococcus acidilactici
  MIC: 3.54 µM (≈ 16.7 µg/mL)
[14]
  MIC: 1.77 µM (≈ 8.36 µg/mL)
Serratia marcescens Db11
  MIC: 5 µM (≈ 23.6 µg/mL)
Alcaligenes faecalis
  MIC: 5 µM (≈ 23.6 µg/mL)
Escherichia coli D22
  MIC: 3.54 µM (≈ 16.7 µg/mL)
Salmonella typhimurium
  MIC: 5 µM (≈ 23.6 µg/mL)
Staphylococcus aureus
  MIC: 0.88 µM (≈ 4.16 µg/mL)

Source: DBAASP
